Source: patent US20220145316A1, “CANCER IMMUNOTHERAPY” (priority 2019, published 2022)
*1 amine or outer side, *2 acyl side, *3 side chain or, on linkers, in order; H or OH if unused. Where a SMILES comes first, the peptide text is derived from it. [ ]: non-standard residue; d: D form. The star is where a group is joined. Dolaproine = CO[C@@H]([C@@H]1CCCN1)[C@@H](C)C(=O)O; Hexanoyl(6-maleimido) = O=C1C=CC(=O)N1CCCCCC(=O)*; Dil = CC[C@H](C)[C@H](NC)[C@@H](CC(=O)O)OC; PABC = O=C(OCc1ccc(N[*:1])cc1)[*:2]; X1 = C[C@@H](N*)[C@@H](O)c1ccccc1; Cit = NC(=O)NCCC[C@H](N)C(=O)O; NMeV = CN[C@H](C(=O)O)C(C)C

Assays:
[1] = after a single administration; cited from earlier work
[2] = test system: Raji-luc B lymphoma cells; experiment: Drug delivery study in Raji B cell lymphoma model (survival, bioluminescence, kidney histology); assay type: in vivo, NSG mice
Experimental: Drug delivery study and histology: NSG male mice (7 weeks) were inoculated with 1×10^6 Raji-luc cells intravenously. […] For the first study, dosing started on day 3 and drugs/drug delivery system were injected i.p. every 4 days for a total of 6 injections. For the second study, dosing started on day 11 and drugs/drug delivery system were injected i.p. every 4 days for a total of 3 injections. For both studies, weekly bioluminescence imaging using the IVIS Spectrum was used to monitor lymphoma progression. […] Tissues were harvested for histology using H&E staining to show tumor burden or lack thereof.
Male NSG mice were injected intravenously with luciferase expressing Raji cells and monitored for lymphoma engraftment and progression using bioluminescence imaging. Tumor engrafted mice were randomly assigned to the treatment groups (n=5).
The MMAE dose was selected based on the fact that the known maximum tolerated dose (MTD) of free MMAE is 0.25-0.5 mg kg^−1 after a single administration. A dose of 0.125 mg/kg was chosen to allow for multiple treatments. Mice injected intravenously with Raji cells develop hind leg paralysis (due to the infiltration of neoplastic cells into the spinal canal) and/or lose weight prior to death. Therefore, hind leg paralysis or >15% loss in body weight were considered experimental endpoints at which mice were euthanized.

Daudi cells = conditions: read-out: IC50 (cytotoxicity), 72 hours
Experimental: (§1) Cell viability and proliferation in cell lines were estimated using a resazurin based assay (Prestoblue, Thermo Scientific). Cell viability in healthy B cells was measured using 7-AAD (Cayman Chemical Company, Ann Harbor, Mich.) cell exclusion using flow cytometric analysis gated on the B cell fraction (CD19-PE, BD Biosciences, Franklin Lakes, N.J.).

Raji cells = conditions: read-out: IC50 (cytotoxicity), 72 hours
Experimental: as §1

normal donor B cells = conditions: normal B cells from healthy human donor, 72 hours
Experimental: as §1

| Compound | maximum tolerated dose (MTD) [1] | histological analysis of kidney sections, lymphoma cell infiltration ([2]; H&E, PVX and MMAE mice when moribund, PVX-vcMMAE mice at end of study period) | lymphoma progression by bioluminescence imaging ([2]; first study: 6 i.p. injections every 4 days from day 3) | median survival ([2]; first study: 6 i.p. injections every 4 days from day 3, MMAE 0.125 mg/kg, PVX-vcMMAE 0.4 mg/kg, PVX 1 mg, PBS 45 days) | median survival ([2]; second study: 3 i.p. injections every 4 days from day 11, PBS 42 days) | IC50 (Daudi cells) | IC50 (Raji cells) | cytotoxicity towards non-dividing normal donor B cells (normal donor B cells) |
| --- | --- | --- | --- | --- | --- | --- | --- | --- |
| CC[C@H](C)[C@@H]([C@@H](CC(=O)N1CCC[C@H]1[C@H](OC)[C@@H](C)C(=O)N[C@H](C)[C@@H](O)c1ccccc1)OC)N(C)C(=O)[C@@H](NC(=O)[C@@H](NC)C(C)C)C(C)C [MMAE, (S)-N-((3R,4S,5S)-1-((S)-2-((1R,2R)-3-(((1S,2R)-1-hydroxy-1-phenylpropan-2-yl)amino)-1-methoxy-2-methyl-3-oxopropyl)pyrrolidin-1-yl)-3-methoxy-5-methyl-1-oxoheptan-4-yl)-N,3-dimethyl-2-((S)-3-methyl-2-(methylamino)butanamido)butanamide] (H-[NMeV]V[Dil][Dolaproine]-X1) | 0.25 to 0.5 mg/kg | reduced lymphoma cell infiltration | partially limited lymphoma progression | 61 days | 39 days | – | – | – |
| CC[C@H](C)[C@@H]([C@@H](CC(=O)N1CCC[C@H]1[C@H](OC)[C@@H](C)C(=O)N[C@H](C)[C@@H](O)c1ccccc1)OC)N(C)C(=O)[C@@H](NC(=O)[C@H](C(C)C)N(C)C(=O)OCc1ccc(NC(=O)[C@H](CCCNC(N)=O)NC(=O)[C@@H](NC(=O)CCCCCN2C(=O)C=CC2=O)C(C)C)cc1)C(C)C [vcMMAE] ({Hexanoyl(6-maleimido)}-V[Cit][PABC][NMeV]V[Dil][Dolaproine]-X1) | – | – | – | – | – | 80 nM | 160 nM | no cytotoxicity |
